Experimental data as given in patent US10836769B2, “Substituted pyrrolizine compounds and uses thereof” (Gilead Sciences, Inc., priority 2018, dated 2020).
In brackets after ≈: the same amount, converted by molar mass. Like-named read-outs stand apart in the source and are kept apart here.

Legend:
HBV = HBV DNA Quantification Assay; type: cell-based; settings: Hepatitis B virus, 120 h; HepG2 cell line overexpressing NTCP infected with HBV AD38 viral particles; HBV DNA in culture supernatant after 5 days; geometric mean of a minimum of four determinations; read-out: EC50
Experimental: A HepG2 cell line overexpressing the HBV virus attachment receptor sodium-taurocholate cotransporting polypeptide (NTCP) was grown to confluency in DMEM growth medium, Dulbecco's Modified Eagle Medium without sodium pyruvate (Life Technologies, Rockville, Md.) supplemented with 10% FBS (Thermo Scientific, Waltham, Md.), 1% penicillin/streptomycin (Life Technologies, Rockville, Md.) and 2 mM L-glutamine (Life Technologies, Rockville, Md.) in T175 flasks. Cells were infected with HBV AD38 viral particles (Texcell, Frederick, USA) at 4000 genome equivalents per cell. After allowing viral infection to take place for 4 days, the infected cells were harvested from the flasks by trypsinization, washed twice with OptiMEM (Life Technologies, Rockville, Md.) and re-suspended in DMEM containing 2% FBS and 1% DMSO at a density of 0.25E6 cells/ml. Infected cells were seeded on 384 well collagen coated plates (Greiner, Austria) at a density of 20,000 cells/well containing serially diluted compounds of the present disclosure or DMSO (0.5%) in a final volume of 80 μl. The assay plates were incubated for a period of 5 days and the antiviral activity of the test compounds were assayed by detecting the presence of HBV DNA in the culture supernatant using the QuantiGene™ 2.0 nucleic acid quantification kit (Affymetrix, Santa Clara, Calif.).
The culture supernatant was harvested and treated with lysis buffer containing Proteinase K (Affymetrix, Santa Clara, Calif.). The supernatant was incubated with HBV viral DNA specific probes (Affymetrix, Santa Clara, Calif.) for 30 minutes at 55° C. This was followed by addition of 0.2M NaOH for 30 minutes at room temperature to denature the DNA, followed by addition of Neutralization buffer (Affymetrix, Santa Clara, Calif.). The resulting lysed and neutralized supernatant was then added to QuantiGene™ 2.0 384 well plates coated with capture oligonucleotides and incubated overnight at 55° C. The HBV specific probe set consists of Capture Extender oligonucleotides (CE's) and blocking probes. Following the overnight incubation, the wells were incubated for one hour sequentially with a Pre-Amplifier, Amplifier and Labeled probes conjugated to alkaline phosphatase with a wash step between incubations. After the final wash step, the alkaline phosphatase substrate (Luminol APS5) was added and the resulting luminescence signal was read in an EnVision Multilabel Plate Reader (PerkinElmer, Santa Clara, Calif.). The EC50 values were calculated from the fit of the dose-response curves to a four-parameter equation. All EC50 values represent geometric mean values of a minimum of four determinations.

Kinetic Solubility = type: physicochemical; settings: kinetic from dmso stock, 0.2 to 100 μM, BD Gentest Solubility Scanner
Experimental: The 10 mM DMSO stock solution of the test compound is serially diluted into a 96-well “DMSO stock dilution plate”. Then Pipette 2 μL from the DMSO stock dilution plate into the “Sample plate” and dilute with 198 µL of the assay media to generate the final concentrations of the test compound ranging from 0.2 to 100 μM. The “Sample plate” is run on a BD Gentest Solubility Scanner.

[1] = aqueous buffer, pH = 7, read-out: Kinetic Solubility at pH = 7
[2] = simulated gastric fluid, pH = 1, read-out: Kinetic Solubility at pH = 1

| SMILES | EC50 (HBV) [µM] | solubility kinetic (Kinetic Solubility; [1]) [µM] | solubility kinetic (Kinetic Solubility; [2]) [µM] |
| --- | --- | --- | --- |
| Cc1c(C(=O)Nc2ccc(F)cc2)c2n(c1C(=O)C(=O)NC1(c3cnn[nH]3)CC(F)(F)C1)C[C@H]1C[C@@H]21 [Example 14, (1aS,6bR)-4-(2-((3,3-difluoro-1-(1H-1,2,3-triazol-4-yl)cyclobutyl)amino)-2-oxoacetyl)-N-(4-fluorophenyl)-5-methyl-1,1a,2,6b-tetrahydrocyclopropa[a]pyrrolizine-6-carboxamide] | 0.0026 | 61.4 (≈ 30.6 µg/mL) | 57.1 (≈ 28.5 µg/mL) |
| Cc1c(C(=O)Nc2ccc(F)c(C#N)c2)c2n(c1C(=O)C(=O)NC1(c3cnn[nH]3)CC(F)(F)C1)CCC2 [Example 15, N-(3-cyano-4-fluorophenyl)-5-(2-((3,3-difluoro-1-(1H-1,2,3-triazol-4-yl)cyclobutyl)amino)-2-oxoacetyl)-6-methyl-2,3-dihydro-1H-pyrrolizine-7-carboxamide] | 0.0052 | 13.9 (≈ 7.11 µg/mL) | 13.5 (≈ 6.9 µg/mL) |
| Cc1c(C(=O)Nc2ccc(F)c(Cl)c2)c2n(c1C(=O)C(=O)NC1(c3cnn[nH]3)CC(F)(F)C1)CCC2 [Example 16, N-(3-chloro-4-fluorophenyl)-5-(2-((3,3-difluoro-1-(1H-1,2,3-triazol-4-yl)cyclobutyl)amino)-2-oxoacetyl)-6-methyl-2,3-dihydro-1H-pyrrolizine-7-carboxamide] | 0.0018 | 2.8 (≈ 1.46 µg/mL) | 16.5 (≈ 8.59 µg/mL) |
| Cc1c(C(=O)Nc2ccc(F)cc2)c2n(c1C(=O)C(=O)NC1(c3cnn[nH]3)CC(F)(F)C1)CCC2 [Example 17, 5-(2-((3,3-difluoro-1-(1H-1,2,3-triazol-4-yl)cyclobutyl)amino)-2-oxoacetyl)-N-(4-fluorophenyl)-6-methyl-2,3-dihydro-H-pyrrolizine-7-carboxamide] | 0.0041 | 77.8 (≈ 37.8 µg/mL) | 70.2 (≈ 34.1 µg/mL) |
| Cc1c(C(=O)Nc2cc(F)c(F)c(F)c2)c2n(c1C(=O)C(=O)NC1(c3cnn[nH]3)CC(F)(F)C1)CCC2 [Example 18] | 0.0024 | 52.7 (≈ 27.5 µg/mL) | 50 (≈ 26.1 µg/mL) |
| Cc1c(C(=O)Nc2ccc(F)c(F)c2)c2n(c1C(=O)C(=O)NC1(CO)CC(F)(F)C1)CCC2 [Example 19, 5-(2-((3,3-difluoro-1-(hydroxymethyl)cyclobutyl)amino)-2-oxoacetyl)-N-(3,4-difluorophenyl)-6-methyl-2,3-dihydro-1H-pyrrolizine-7-carboxamide] | 0.0202 | 62 (≈ 29 µg/mL) | 68.7 (≈ 32.1 µg/mL) |
| CNC(=O)C1(NC(=O)C(=O)c2c(C)c(C(=O)Nc3ccnc(C(F)F)c3F)c3n2CCC3)CC(F)(F)C1 [Example 20, 5-(2-((3,3-difluoro-1-(methylcarbamoyl)cyclobutyl)amino)-2-oxoacetyl)-N-(2-(difluoromethyl)-3-fluoropyridin-4-yl)-6-methyl-2,3-dihydro-1H-pyrrolizine-7-carboxamide] | 0.503 | 28 (≈ 14.8 µg/mL) | 26.3 (≈ 13.9 µg/mL) |
| Cc1c(C(=O)Nc2ccc(F)c(F)c2)c2n(c1C(=O)C(=O)NC1(c3cnn[nH]3)CC(F)(F)C1)C[C@@H]1C[C@H]21 [Example 21] | 0.0039 | 57.6 (≈ 29.7 µg/mL) | 64.7 (≈ 33.4 µg/mL) |
| CNC(=O)C1(NC(=O)C(=O)c2c(C)c(C(=O)Nc3ccc(F)c(F)c3)c3n2C[C@@H]2C[C@H]32)CC(F)(F)C1 [Example 22, (1aR,6bS)-4-(2-((3,3-difluoro-1-(methylcarbamoyl)cyclobutyl)amino)-2-oxoacetyl)-N-(3,4-difluorophenyl)-5-methyl-1,1a,2,6b-tetrahydrocyclopropa[a]pyrrolizine-6-carboxamide] | 0.0315 | > 100 | > 100 |
| Cc1c(C(=O)Nc2ccc(F)c(F)c2)c2n(c1C(=O)C(=O)NC1(c3cnn[nH]3)CC(F)(F)C1)[C@H]1C[C@H]1C2 [Example 23, (1aS,6aS)-3-(2-((3,3-difluoro-1-(1H-1,2,3-triazol-5-yl)cyclobutyl)amino)-2-oxoacetyl)-N-(3,4-difluorophenyl)-4-methyl-1,1a,6,6a-tetrahydrocyclopropa[a]pyrrolizine-5-carboxamide] | 0.0318 | 49.4 (≈ 25.5 µg/mL) | 62 (≈ 32 µg/mL) |
| CNC(=O)C1(NC(=O)C(=O)c2c(C)c(C(=O)Nc3ccc(F)c(F)c3)c3n2[C@H]2C[C@H]2C3)CC(F)(F)C1 [Example 24] | 0.177 | 87.1 (≈ 44.1 µg/mL) | 99.4 (≈ 50.3 µg/mL) |
| Cc1c(C(=O)Nc2ccc(F)c(F)c2)c2n(c1C(=O)C(=O)NC1(c3cnn[nH]3)CC(F)(F)C1)C[C@H]1C[C@@H]21 [Example 25, (1aS,6bR)-4-(2-((3,3-difluoro-1-(1H-1,2,3-triazol-5-yl)cyclobutyl)amino)-2-oxoacetyl)-N-(3,4-difluorophenyl)-5-methyl-1,1a,2,6b-tetrahydrocyclopropa[a]pyrrolizine-6-carboxamide] | 0.0019 | 65 (≈ 33.6 µg/mL) | 72.6 (≈ 37.5 µg/mL) |
| CNC(=O)C1(NC(=O)C(=O)c2c(C)c(C(=O)Nc3ccc(F)c(F)c3)c3n2C[C@H]2C[C@@H]32)CC(F)(F)C1 [Example 26, (1aS,6bR)-4-(2-((3,3-difluoro-1-(methylcarbamoyl)cyclobutyl)amino)-2-oxoacetyl)-N-(3,4-difluorophenyl)-5-methyl-1,1a,2,6b-tetrahydrocyclopropa[a]pyrrolizine-6-carboxamide] | 0.0206 | > 100 | > 100 |
| Cc1c(C(=O)Nc2ccc(F)c(C(F)F)c2)c2n(c1C(=O)C(=O)NC1(c3c[nH]nn3)CC1)CCC2 [Example 27, 5-(2-((1-(1H-1,2,3-triazol-4-yl)cyclopropyl)amino)-2-oxoacetyl)-N-(3-(difluoromethyl)-4-fluorophenyl)-6-methyl-2,3-dihydro-1H-pyrrolizine-7-carboxamide] | 0.023 | 2.7 (≈ 1.31 µg/mL) | 8.4 (≈ 4.09 µg/mL) |
| CNC(=O)C1(NC(=O)C(=O)c2c(C)c(C(=O)Nc3ccc(F)c(C#N)c3)c3n2CCC3)CC(F)(F)C1 [Example 28, N-(3-cyano-4-fluorophenyl)-5-(2-((3,3-difluoro-1-(methylcarbamoyl)cyclobutyl)amino)-2-oxoacetyl)-6-methyl-2,3-dihydro-1H-pyrrolizine-7-carboxamide] | 0.294 | 25.3 (≈ 12.7 µg/mL) | 55.7 (≈ 27.9 µg/mL) |
| Cc1c(C(=O)Nc2cc(F)c(F)c(F)c2)c2n(c1C(=O)C(=O)NC1(c3nncs3)CC1)CCC2 [Example 29, 5-(2-((1-(1,3,4-thiadiazol-2-yl)cyclopropyl)amino)-2-oxoacetyl)-6-methyl-N-(3,4,5-trifluorophenyl)-2,3-dihydro-1H-pyrrolizine-7-carboxamide] | 0.0143 | 4.5 (≈ 2.2 µg/mL) | 88.7 (≈ 43.4 µg/mL) |
| Cc1c(C(=O)Nc2ccc(F)cc2)c2n(c1C(=O)C(=O)NC1(c3nncs3)CC1)CCC2 [Example 30, 5-(2-((1-(1,3,4-thiadiazol-2-yl)cyclopropyl)amino)-2-oxoacetyl)-N-(4-fluorophenyl)-6-methyl-2,3-dihydro-1H-pyrrolizine-7-carboxamide] | 0.0306 | 13 (≈ 5.9 µg/mL) | > 100 |
| Cc1c(C(=O)Nc2ccc(F)c(C(F)F)c2)c2n(c1C(=O)C(=O)NC1(c3nncs3)CC1)CCC2 [Example 31] | 0.0165 | 6.3 (≈ 3.17 µg/mL) | 23.1 (≈ 11.6 µg/mL) |
| Cc1c(C(=O)Nc2ccc(F)c(C(F)F)c2)c2n(c1C(=O)C(=O)NC1(C(N)=O)CC(F)(F)C1)CCC2 [Example 32, 5-(2-((1-carbamoyl-3,3-difluorocyclobutyl)amino)-2-oxoacetyl)-N-(3-(difluoromethyl)-4-fluorophenyl)-6-methyl-2-dihydro-1H-pyrrolizine-7-carboxamide] | 0.0242 | 89.5 (≈ 45.9 µg/mL) | 93.1 (≈ 47.7 µg/mL) |
| CNC(=O)C1(NC(=O)C(=O)c2c(C)c(C(=O)Nc3ccc(F)c(F)c3)c3n2[C@@H]2C[C@@H]2C3)CC(F)(F)C1 [Example 33] | 0.0936 | 92.3 (≈ 46.7 µg/mL) | 92.1 (≈ 46.6 µg/mL) |
